This note sets out measurements from patent US9359337B2, “Acetamide derivatives” (Hoffmann-La Roche Inc., priority 2012, dated 2016).

In the assay the target is h-TRPA1 (Homo sapiens (Human), UniProt O75762). Nature of the assay: Dose response calcium flux (FLIPR) assay, ChanTest hTRPA1-CHO stably transfected cell line. The format is cell-based. As to conditions: CHO-K1 Tet-on TRPA1 cells; calcium flux after cinnamaldehyde 100 uM agonist; 30 min compound preincubation. As to the method:
Dose Response Assay: ChanTest hTRPA1-CHO Stably Transfected Cell Line
To induce expression, tetracycline was added to blasticidin/zeocin-free media at a final concentration of 1 ug/ml. Experiments were run at 24 hours post induction.
• Harvested cells with 0.025% trypsin/EDTA. • Resuspended cells in growth media without selection antibiotics. • Measured cell density and diluted to 2.4×10^5 cells/ml in media containing 1 ug/ml Doxycycline Plate 25 ul/well into 384 well black/clear tissue culture-treated plates. • Incubated overnight at 37° C. Calcium Flux Assay: Day of Assay: Reagents: • Replacement Buffer: Hank's Balanced Salt Solution, 20 mM HEPES along with 0.005% BSA and 2× Probenecid • Dye Loading Buffer: Cal-3 NW Calcium dye was prepared by dissolving the contents of one vial with […] Hank's Balanced Salt Solution containing 20 mM HEPES. Control Compounds for CHOK1/TRPA1 Cells: • AP-18, stock 10 mM, prepare 3.5× compound dilution in a Compound Buffer (HBSS/20 mM HEPES/0.005% BSA)—final concentration 10 uM. Preparation of Cinnamaldehyde (Agonist Addition): • FW=132.16 • Specific gravity=1.046 gm/cc • 1.32 gm/1.046 gm/cc=1.26 ml of stock • Add 1.74 ml DMSO=3.3 M stock • Working solution 4.5× (final 100 uM in Compound Buffer: HBSS/20 mM HEPES/0.005% BSA) Compounds dilutions were prepared from 5 or 10 mM stock (100% DMSO):
Compounds were tested at either 20 μM three folds dilution 11 steps out or 30 μM two folds dilution 11 steps out.
Growth media was removed from the cell plates (20 ul) and 20 ul of the Replacement Buffer was added followed by addition of 25 ul of diluted dye. All three steps were performed using a Plate Washer BioTek 407. The plates were then incubated for 30′ at RT.
After incubation, both the cell and compound plates were brought to the FLIPR and 20 ul of the diluted compounds/antagonist/bk were transferred to the cell plates by the FLIPR. Plates were then incubated for 30′ at room temperature. After 30′ incubation, plates were returned to the FLIPR and 20 ul of 4.5× Cinnamaldehyde was added to the cell plates. During the compound addition as well as agonist addition, fluorescence readings were taken simultaneously from all 384 wells of the cell plate every 1.5 seconds. Five readings were taken to establish a stable baseline, then 20 ul of sample was rapidly (30 ul/sec) and simultaneously added to each well of the cell plate. The fluorescence was continuously monitored before, during and after sample/agonist addition for a total elapsed time of 100 seconds (compound addition) and 120 seconds (agonist addition). Responses (increase in peak fluorescence) in each well following agonist addition was determined. The initial fluorescence reading from each well, prior to ligand stimulation, was used a zero baseline value for the data from that well.
Background: A change in cytosolic calcium serves as a functional read-out for many receptors and channels.

Chain of h-TRPA1 (O75762 whole entry): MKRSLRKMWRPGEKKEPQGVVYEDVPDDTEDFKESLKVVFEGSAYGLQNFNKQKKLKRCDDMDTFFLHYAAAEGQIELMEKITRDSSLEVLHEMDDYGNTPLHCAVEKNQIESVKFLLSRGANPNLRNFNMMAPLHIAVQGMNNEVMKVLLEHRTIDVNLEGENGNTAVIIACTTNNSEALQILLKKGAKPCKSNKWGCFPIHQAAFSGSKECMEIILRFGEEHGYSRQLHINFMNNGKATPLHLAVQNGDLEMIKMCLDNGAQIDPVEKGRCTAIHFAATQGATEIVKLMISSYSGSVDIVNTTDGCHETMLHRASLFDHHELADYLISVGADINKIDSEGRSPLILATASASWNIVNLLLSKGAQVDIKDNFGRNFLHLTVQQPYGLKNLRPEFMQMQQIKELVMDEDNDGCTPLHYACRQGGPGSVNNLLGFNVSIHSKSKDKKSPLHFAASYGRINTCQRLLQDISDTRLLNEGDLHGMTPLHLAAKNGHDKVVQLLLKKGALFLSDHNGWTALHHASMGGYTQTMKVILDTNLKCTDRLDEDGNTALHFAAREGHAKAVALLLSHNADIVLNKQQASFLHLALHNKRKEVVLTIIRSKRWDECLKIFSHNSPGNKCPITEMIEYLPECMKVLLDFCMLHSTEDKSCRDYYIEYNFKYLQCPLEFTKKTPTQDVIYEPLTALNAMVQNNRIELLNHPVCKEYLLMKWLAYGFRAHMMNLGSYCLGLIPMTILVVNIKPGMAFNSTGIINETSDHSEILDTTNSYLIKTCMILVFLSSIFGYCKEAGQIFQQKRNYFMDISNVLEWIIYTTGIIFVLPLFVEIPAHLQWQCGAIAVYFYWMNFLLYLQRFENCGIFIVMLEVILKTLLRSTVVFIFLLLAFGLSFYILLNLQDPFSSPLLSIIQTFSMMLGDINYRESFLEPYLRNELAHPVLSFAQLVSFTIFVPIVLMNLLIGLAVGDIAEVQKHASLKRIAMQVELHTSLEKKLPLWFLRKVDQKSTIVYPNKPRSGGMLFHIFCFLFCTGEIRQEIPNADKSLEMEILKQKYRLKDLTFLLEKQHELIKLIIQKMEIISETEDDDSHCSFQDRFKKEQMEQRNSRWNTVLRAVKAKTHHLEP

By IC50 is commonly meant the midpoint of a concentration-inhibition curve. `CC(C)N(CC(=O)NCC1CN(c2ccc(C(F)(F)F)cn2)CCO1)S(=O)(=O)c1ccc(F)cc1` (centres unmarked) [Example 12, 2-[(4-Fluoro-benzenesulfonyl)-isopropyl-amino]-N-[4-(5-trifluoromethyl-pyridin-2-yl)-morpholin-2-ylmethyl]-acetamide]: the IC50 was determined as 0.385 µM.

`CC(C)N(CC(=O)NC[C@H]1CCCN(c2ccc(C(F)(F)F)cc2)C1)S(=O)(=O)c1ccc(F)cc1` [Example 6, 2-[(4-Fluoro-benzenesulfonyl)-isopropyl-amino]-N—[(R)-1-(4-trifluoromethyl-phenyl)-piperidin-3-ylmethyl]-acetamide]: the IC50 amounted to 0.504 µM. Under `CCN(CC(=O)NCC1CCCN(c2ccc(C(F)(F)F)cc2)C1)S(=O)(=O)c1ccc(F)cc1` (centres unmarked) [Example 1, 2-[Ethyl-(4-fluoro-benzenesulfonyl)-amino]-N-[1-(4-trifluoromethyl-phenyl)-piperidin-3-ylmethyl]-acetamide] stands 0.494 µM; under `CCN(CC(=O)NCC1CCN(c2ccc(C(F)(F)F)cc2)C1)S(=O)(=O)c1ccc(F)cc1` (centres unmarked) [Example 3, 2-[Ethyl-(4-fluoro-benzenesulfonyl)-amino]-N-[1-(4-trifluoromethyl-phenyl)-pyrrolidin-3-ylmethyl]-acetamide], 0.634 µM; under `CC(C)N(CC(=O)NC[C@H]1CN(c2ccc(C(F)(F)F)cc2)CCO1)S(=O)(=O)c1ccc(F)cc1` [Example 11, 2-[(4-Fluoro-benzenesulfonyl)-isopropyl-amino]-N—[(S)-4-(4-trifluoromethyl-phenyl)-morpholin-2-ylmethyl]-acetamide], 0.151 µM. For the molecule `CC(C)N(CC(=O)NCC1CN(c2ccc(C(F)(F)F)cc2)CCO1)S(=O)(=O)c1ccc(F)cc1` (racemic) [Example 8, 2-[(4-Fluoro-benzenesulfonyl)-isopropyl-amino]-N-[4-(4-trifluoromethyl-phenyl)-morpholin-2-ylmethyl]-acetamide], the IC50 is 0.193 µM. With `CC(C)N(CC(=O)NCC1CCN(c2ccc(C(F)(F)F)cc2)C1)S(=O)(=O)c1ccc(F)cc1` (centres unmarked) [Example 4, 2-[(4-Fluoro-benzenesulfonyl)-isopropyl-amino]-N-[1-(4-trifluoromethyl-phenyl)-pyrrolidin-3-ylmethyl]-acetamide] the figure was 0.425 µM; with `CC(C)N(CC(=O)NC[C@@H]1CCCN(c2ccc(C(F)(F)F)cc2)C1)S(=O)(=O)c1ccc(F)cc1` [Example 5, 2-[(4-Fluoro-benzenesulfonyl)-isopropyl-amino]-N—[(S)-1-(4-trifluoromethyl-phenyl)-piperidin-3-ylmethyl]-acetamide], 0.307 µM. Under `CC(C)N(CC(=O)NCC1CCCN(c2ccc(C(F)(F)F)cc2)C1)S(=O)(=O)c1ccc(F)cc1` (racemic) [Example 2, 2-[(4-Fluoro-benzenesulfonyl)-isopropyl-amino]-N-[1-(4-trifluoromethyl-phenyl)-piperidin-3-ylmethyl]-acetamide] stands 0.233 µM; under `CCN(CC(=O)NCC1CN(c2ccc(C(F)(F)F)cc2)CCO1)S(=O)(=O)c1ccc(F)cc1` (centres unmarked) [Example 9, 2-[Ethyl-(4-fluoro-benzenesulfonyl)-amino]-N-[4-(4-trifluoromethyl-phenyl)-morpholin-2-ylmethyl]-acetamide], 0.226 µM.

As for `CC(C)N(CC(=O)NC[C@@H]1CN(c2ccc(C(F)(F)F)cc2)CCO1)S(=O)(=O)c1ccc(F)cc1` [Example 10, 2-[(4-Fluoro-benzenesulfonyl)-isopropyl-amino]-N—[(R)-4-(4-trifluoromethyl-phenyl)-morpholin-2-ylmethyl]-acetamide], the IC50 was determined as 1.31 µM.
